In ChEMBL document CHEMBL5143714, “Discovery of BMS-986339, a Pharmacologically Differentiated Farnesoid X Receptor Agonist for the Treatment of Nonalcoholic Steatohepatitis” (J Med Chem, 2022):

How the values were obtained:
[1] = Metabolic stability in rat liver microsome assessed as parent compound remaining at […] measured after 10 mins; assay type: ADME; conditions: liver microsomes, read-out: Stability
[2] = molecular target: T1, Nuclear receptor subfamily 1 group I member 2 (Homo sapiens, UniProt O75469); test: Transactivation of PXR (unknown origin) relative to refampicin; assay type: ADME
T1 sequence (O75469 whole entry): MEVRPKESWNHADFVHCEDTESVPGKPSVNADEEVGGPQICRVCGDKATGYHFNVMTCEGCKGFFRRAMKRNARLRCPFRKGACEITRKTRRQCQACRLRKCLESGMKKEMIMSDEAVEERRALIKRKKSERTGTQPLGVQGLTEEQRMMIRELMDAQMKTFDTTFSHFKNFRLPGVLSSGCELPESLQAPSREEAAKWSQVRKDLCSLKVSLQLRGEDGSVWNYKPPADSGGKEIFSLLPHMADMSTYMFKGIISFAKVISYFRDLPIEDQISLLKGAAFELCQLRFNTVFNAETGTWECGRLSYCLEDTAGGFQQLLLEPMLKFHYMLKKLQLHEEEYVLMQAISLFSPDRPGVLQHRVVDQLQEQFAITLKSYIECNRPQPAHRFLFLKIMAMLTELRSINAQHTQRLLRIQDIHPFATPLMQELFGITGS

[3] = Metabolic stability in human liver microsome assessed as parent compound remaining at […] measured after 10 mins; assay type: ADME; conditions: liver microsomes, read-out: Stability
Cytochrome P450 2C19 = Cytochrome P450 2C19 (Homo sapiens, UniProt P33261); test: Inhibition of recombinant CYP2C19 (unknown origin) using fluorogenic substrate preincubated for 15 min followed by NADPH addition measured after 2 hrs by fluorescence method; assay type: ADME
Chain of Cytochrome P450 2C19 (P33261 whole entry): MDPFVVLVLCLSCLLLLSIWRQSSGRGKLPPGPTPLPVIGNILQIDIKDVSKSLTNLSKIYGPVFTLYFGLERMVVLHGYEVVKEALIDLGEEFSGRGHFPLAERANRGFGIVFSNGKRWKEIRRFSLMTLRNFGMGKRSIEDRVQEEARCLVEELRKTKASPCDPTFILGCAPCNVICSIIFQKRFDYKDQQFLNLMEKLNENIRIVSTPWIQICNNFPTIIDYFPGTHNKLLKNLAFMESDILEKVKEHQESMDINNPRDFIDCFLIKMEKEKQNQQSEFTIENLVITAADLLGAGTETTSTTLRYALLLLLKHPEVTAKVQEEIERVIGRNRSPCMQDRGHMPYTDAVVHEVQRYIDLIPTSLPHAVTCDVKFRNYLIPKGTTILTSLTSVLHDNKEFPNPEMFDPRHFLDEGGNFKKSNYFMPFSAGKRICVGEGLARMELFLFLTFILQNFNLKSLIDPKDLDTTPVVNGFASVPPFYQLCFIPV

Cytochrome P450 2C9 = Cytochrome P450 2C9 (Homo sapiens, UniProt P11712); test: Inhibition of recombinant CYP2C9 (unknown origin) using fluorogenic substrate preincubated for 15 min followed by NADPH addition measured after 2 hrs by fluorescence method; assay type: ADME
Chain of Cytochrome P450 2C9 (P11712 whole entry): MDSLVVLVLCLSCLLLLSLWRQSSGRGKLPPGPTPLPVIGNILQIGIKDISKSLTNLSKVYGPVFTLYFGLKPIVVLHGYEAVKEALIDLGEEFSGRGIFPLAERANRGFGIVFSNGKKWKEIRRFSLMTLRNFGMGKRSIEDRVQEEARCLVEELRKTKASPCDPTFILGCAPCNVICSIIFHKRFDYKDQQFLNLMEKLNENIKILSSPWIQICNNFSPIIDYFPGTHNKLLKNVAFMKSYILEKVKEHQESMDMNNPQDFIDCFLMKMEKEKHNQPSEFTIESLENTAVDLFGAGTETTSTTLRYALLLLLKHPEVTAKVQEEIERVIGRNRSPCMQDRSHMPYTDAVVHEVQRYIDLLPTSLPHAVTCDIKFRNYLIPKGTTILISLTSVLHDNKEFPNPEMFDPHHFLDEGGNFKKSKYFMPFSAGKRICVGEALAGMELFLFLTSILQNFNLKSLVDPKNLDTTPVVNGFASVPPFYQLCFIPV

[4] = molecular target: T1, Nuclear receptor subfamily 1 group I member 2; test: Transactivation of PXR (unknown origin); assay type: ADME
Bile acid receptor = molecular target: T2, Bile acid receptor (Homo sapiens, UniProt Q96RI1); test: Agonist activity at Gal4-fused human FXR in HEK293 cells incubated for 15 min by luciferase reporter assay; assay type: cell-based
T2 sequence (Q96RI1 whole entry): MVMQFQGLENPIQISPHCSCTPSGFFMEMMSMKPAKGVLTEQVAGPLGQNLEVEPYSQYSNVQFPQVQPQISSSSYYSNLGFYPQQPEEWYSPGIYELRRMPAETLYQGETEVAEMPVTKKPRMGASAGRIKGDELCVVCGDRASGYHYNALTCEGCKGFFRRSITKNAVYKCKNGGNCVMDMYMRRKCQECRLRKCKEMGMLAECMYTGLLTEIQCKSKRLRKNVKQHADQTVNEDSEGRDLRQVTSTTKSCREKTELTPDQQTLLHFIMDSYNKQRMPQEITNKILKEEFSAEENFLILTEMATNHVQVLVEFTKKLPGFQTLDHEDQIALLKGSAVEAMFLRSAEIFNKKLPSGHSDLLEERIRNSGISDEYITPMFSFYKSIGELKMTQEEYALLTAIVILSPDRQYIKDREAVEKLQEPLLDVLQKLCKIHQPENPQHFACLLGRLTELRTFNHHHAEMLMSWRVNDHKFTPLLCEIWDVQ

[5] = Metabolic stability in mouse liver microsome assessed as parent compound remaining at […] measured after 10 mins; assay type: ADME; conditions: liver microsomes, read-out: Stability
[6] = Metabolic stability in human liver microsome assessed as parent compound remaining at 1 mg/mL measured after 10 mins; assay type: ADME; conditions: liver microsomes, read-out: Stability
[7] = Metabolic stability in mouse liver microsome assessed as parent compound remaining at 1 mg/mL measured after 10 mins; assay type: ADME; conditions: liver microsomes, read-out: Stability
[8] = Metabolic stability in rat liver microsome assessed as parent compound remaining at 1 mg/mL measured after 10 mins; assay type: ADME; conditions: liver microsomes, read-out: Stability

Compound | remaining at 10 min [1] [%] | Emax [2] [%] | remaining at 10 min [3] [%] | IC50 (Cytochrome P450 2C19) [nM] | IC50 (Cytochrome P450 2C9) [nM] | EC50 [4] [nM] | EC50 (Bile acid receptor) [nM] | remaining at 10 min [5] [%] | remaining at 10 min [6] [%] | remaining at 10 min [7] [%] | remaining at 10 min, 1 mg/mL [8] [%]
CC(C)(C)c1nc(C23CCC(CN(C(=O)C45CC(F)(C4)C5)c4cccc(-c5nc(C6CC6)no5)c4)(CC2)CC3)no1 | 81 | 19 | 97 | 9000 | 3000 | 50000 | 29 | 92 | – | – | –
COC(=O)/C=C/c1cccc(N(CC23CCC(c4ccc(C5CC5)cc4)(CC2)CC3)C(=O)C2CCCCC2)c1 | – | – | – | – | – | – | 111 | – | – | – | –
CCOc1ccc(-c2cccc(N(CC34CCC(c5noc(C(C)(C)C)n5)(CC3)CC4)C(=O)C34CC(F)(C3)C4)c2)cn1 | 79 | 9 | 94 | 8000 | 2000 | 50000 | – | 58 | – | – | –
O=C(C1CCC(F)(F)CC1)N(CC12CCC(c3nc(C4CC4)no3)(CC1)CC2)c1cccc(-c2nc(C3CC3)no2)c1 | 23 | 35 | 100 | 300 | 20000 | 8000 | 149 | 82 | – | – | –
CC(C)(C)c1nc(C23CCC(CN(C(=O)C45CC(F)(C4)C5)c4cccc(-c5nnc(C6CC6)o5)c4)(CC2)CC3)no1 | 60 | – | 76 | 1000 | – | – | 45 | 52 | – | – | –
CC(C)(C)c1noc(C23CCC(CN(C(=O)C45CC(F)(C4)C5)c4cccc(-c5nc(C6CC6)no5)c4)(CC2)CC3)n1 | 86 | 11 | 100 | 20000 | 20000 | 50000 | 70 | 100 | – | – | –
CCOc1ncc(-c2cccc(N(CC34CCC(c5noc(C(C)(C)C)n5)(CC3)CC4)C(=O)[C@H]3C[C@](O)(C(F)(F)F)C3)c2)cn1 | 73 | 10 | 69 | 10000 | 1000 | 50000 | 152 | 86 | – | – | –
CCOc1ncc(-c2cccc(N(CC34CCC(c5noc(C(C)(C)C)n5)(CC3)CC4)C(=O)C34CC(F)(C3)C4)c2)cn1 | 80 | 9 | 100 | 6000 | 1000 | 50000 | 41 | 77 | – | – | –
CC(C)(O)c1ccc(-c2cccc(N(CC34CCC(c5noc(C(C)(C)F)n5)(CC3)CC4)C(=O)[C@H]3C[C@@](C)(O)C3)c2)cc1 | 100 | 13 | 100 | 9000 | 5000 | 50000 | 25 | 99 | – | – | –
CCOc1ncc(-c2cccc(N(CC34CCC(c5noc(C(C)(C)C)n5)(CC3)CC4)C(=O)[C@H]3C[C@@](C)(O)C3)c2)cn1 | 44 | 37 | 64 | 9000 | 1000 | 1500 | – | 84 | – | – | –
O=C(C1CCS(=O)(=O)CC1)N(CC12CCC(c3nc(C4CC4)no3)(CC1)CC2)c1cccc(-c2nc(C3CC3)no2)c1 | 10 | 48 | 100 | 8000 | 8000 | 4000 | 1090 | 100 | – | – | –
COC(=O)/C=C/c1cccc(N(CC23CCC(c4ccc(OC)cc4)(CC2)CC3)C(=O)C2CCCCC2)c1 | – | – | – | – | – | – | 142 | – | 60 | 35 | 8
COC(=O)/C=C/c1cccc(N(CC23CCC(c4ccc(N5CCCC5)cc4)(CC2)CC3)C(=O)C2CCCCC2)c1 | – | – | – | – | – | – | 299 | – | – | – | –
O=C(N(CC12CCC(c3nc(C4CC4)no3)(CC1)CC2)c1cccc(-c2nc(C3CC3)no2)c1)C12CC(F)(C1)C2 | 99 | 25 | 100 | 2000 | 2000 | 1000 | – | 100 | – | – | –
CCOc1ncc(-c2cccc(N(CC34CCC(c5noc(C(F)F)n5)(CC3)CC4)C(=O)C34CC(F)(C3)C4)c2)cn1 | 64 | 28 | 88 | 7000 | 2000 | 2000 | 170 | 84 | – | – | –
COC(=O)/C=C/c1cccc(N(CC23CCC(c4ccc(N5CCOCC5)cc4)(CC2)CC3)C(=O)C2CCCCC2)c1 | – | – | – | – | – | – | 118 | – | – | – | –
COC(=O)/C=C/c1cccc(N(CC23CCC(c4nc(C)no4)(CC2)CC3)C(=O)C2CCCCC2)c1 | – | – | – | – | – | – | 57 | – | 6 | 4 | 31

More lines, now with the values ahead:

remaining at 10 min [1] [%] | Emax [2] [%] | remaining at 10 min [3] [%] | IC50 (Cytochrome P450 2C19) [nM] | IC50 (Cytochrome P450 2C9) [nM] | EC50 [4] [nM] | EC50 (Bile acid receptor) [nM] | remaining at 10 min [5] [%] | remaining at 10 min [6] [%] | remaining at 10 min [7] [%] | remaining at 10 min, 1 mg/mL [8] [%] | Compound
– | – | – | – | – | – | 92 | – | – | – | – | COc1cccc(-c2cccc(N(CC34CCC(c5nc(C6CC6)no5)(CC3)CC4)C(=O)C3CCCCC3)c2)c1
0 | – | 86 | 20000 | 1000 | – | 114 | 8 | – | – | – | O=C(C1CCOCC1)N(CC12CCC(c3nc(C4CC4)no3)(CC1)CC2)c1cccc(-c2nc(C3CC3)no2)c1
4 | 21 | 38 | 20000 | 20000 | 6000 | 44 | 34 | – | – | – | O=C(C1CCCCC1)N(CC12CCC(c3nc(C4CC4)no3)(CC1)CC2)c1cccc(-c2nc(C3CC3)no2)c1
37 | 11 | 98 | 13000 | 20000 | 50000 | 1640 | 71 | – | – | – | CN1CCC(C(=O)N(CC23CCC(c4nc(C5CC5)no4)(CC2)CC3)c2cccc(-c3nc(C4CC4)no3)c2)CC1
– | – | – | – | – | – | 95 | – | – | – | – | COc1cc(-c2cccc(N(CC34CCC(c5nc(C6CC6)no5)(CC3)CC4)C(=O)C3CCCCC3)c2)ccn1
– | – | – | – | – | – | 59 | – | – | – | – | CCOc1cc(-c2cccc(N(CC34CCC(c5nc(C6CC6)no5)(CC3)CC4)C(=O)C3CCCCC3)c2)no1
– | – | – | – | – | – | 919 | – | – | – | – | CCOC(=O)c1nc(-c2cccc(N(CC34CCC(c5nc(C6CC6)no5)(CC3)CC4)C(=O)C3CCCCC3)c2)cs1
72 | 62 | 98 | 17000 | 1000 | 1000 | – | 100 | – | – | – | O=C(C1CC(F)(F)C1)N(CC12CCC(c3nc(C4CC4)no3)(CC1)CC2)c1cccc(-c2nc(C3CC3)no2)c1
